Assays:
Type in all cases: in vivo
[1] = test system: Housefly [Musca domestica]; assay: Housefly insecticidal test; details: μg per 25 female flies; mortality after 48 hours
Procedure: (§1) The compounds in Tables 1 and 2 above were tested for insecticidal activity using the following testing procedures. LC50 values, based on the results of these tests and calculated according to dosage-mortality curves, are expressed in Table 3.
Housefly [Musca domestica]:
Test compounds were diluted in acetone and aliquots pipetted onto the bottom of aluminum dishes. To ensure even spreading of the chemical on the bottom of the dishes, 1 ml of acetone containing 0.01% peanut oil was also added to each dish. After all solvents had evaporated, the dishes were placed in circular cardboard cages containing 25 female houseflies, 1-2 days old. The cages were covered on the bottom with cellophane and on the top with tulle netting, and each contained a sugar-water saturated cotton plug for maintenance of the flies. Mortality was recorded after 48 hours. Test levels ranged from 100 μg/25 female houseflies downward. The LC-50 value is expressed below in Table 3 under the heading "HF", in terms of μg of the test compound per 25 female flies.

[2] = test system: Tobacco Budworm [Heliothis virescens (Fabricius)] eggs; assay: Tobacco budworm egg test; details: 2-day old eggs, percent in solution
Procedure: as §1
Tobacco Budworm [Heliothis virescens (Fabricius)]:
(b). Eggs: Paper towel patches of 2-day old eggs of the tobacco budworm were dipped in acetone solutions of the test compound and placed in petri dishes containing a portion of larval rearing medium. Treated eggs were maintained at 78° F. and mortality was recorded after all control eggs had hatched and the young larvae were feeding on the media. Test concentrations ranged from 0.1% downward. The LC-50 value is expressed below in Table 3 under the heading "TBW-E" in terms of percent of the test compound in the solution.

[3] = test system: Cabbage Looper [Trichoplusia ni (Hubner)]; assay: Cabbage looper insecticidal test; details: second-instar larvae, percent in solution; 3-5 days
Procedure: as §1
Cabbage Looper [Trichoplusia ni (Hubner)]:
Test compounds were diluted in a 50-50 acetone-water solution. Cotyledons of hyzini squash (Calabacita abobrinha), approximately 1×1.5 inches, were immersed in the test solutions for 2-3 seconds and placed on a wire screen to dry. The dried leaves were placed in petri dishes containing a moistened piece of filter paper and infested with 5 second-instar cabbage looper larvae. The dishes were placed in a high humidity chamber. Mortality of the larvae was recorded 3-5 days later. Test concentrations ranged from 0.1% downward. The LC-50 value is expressed below in Table 3 under the heading "CL" in terms of percent of the test compound in solution.

Row | Compound | LC50, HF [1] | LC50, TBW, E (TBW-E) [2] | LC50, CL [3]
1 | CCC(=Nc1ccc(F)c(Cl)c1)OCc1cccc(Oc2ccc(F)cc2)c1 [Compound 115] | 10 µg | 0.075% | 0.0012%
2 | CC(Br)C(=Nc1ccc(F)c(Cl)c1)OCc1cccc(Oc2ccccc2)c1 (stereo not drawn) [Compound 118] | 18 µg | > 0.1% | 0.0013%
3 | CCCCC(=Nc1ccc(F)c(Cl)c1)OCc1cccc(Oc2ccccc2)c1 [Compound 121] | > 100 µg | > 0.1% | 0.1%
4 | CCCC(=Nc1ccc(F)c(Cl)c1)OCc1cccc(Oc2ccccc2)c1 [Compound 123] | > 100 µg | > 0.1% | 0.012%
5 | CC(C)C(=Nc1cccc(C#N)c1)OCc1cccc(Oc2ccccc2)c1 [Compound 126] | > 100 µg | > 0.1% | 0.08%
6 | Cc1cc(N=C(OCc2cccc(Oc3ccccc3)c2)C(C)C)ccc1Br [Compound 127] | 58 µg | 0.04% | 0.01%
7 | CC(C)C(=Nc1c(Br)cc(F)cc1Br)OCc1cccc(Oc2ccccc2)c1 [Compound 130] | > 100 µg | > 0.1% | 0.005%
8 | Cc1cc(Br)ccc1N=C(OCc1cccc(Oc2ccccc2)c1)C(C)C [Compound 133] | 66 µg | 0.1% | 0.005%
9 | CC(C)(C)C(=Nc1cccc(Br)c1)OCc1cccc(Oc2ccccc2)c1 [Compound 134] | > 100 µg | > 0.1% | 0.015%
10 | CC(C)C(=Nc1cccc(I)c1)OCc1cccc(Oc2ccccc2)c1 [Compound 136] | 9 µg | 0.08% | 0.004%
11 | CSc1ccc(N=C(OCc2cccc(Oc3ccccc3)c2)C(Cl)Cl)cc1 [Compound 141] | 35 µg | > 0.1% | < 0.1%
12 | Cc1cccc(N=C(OCc2cccc(Oc3ccccc3)c2)C(C)C)c1C [Compound 148] | 18 µg | 0.025% | 0.0025%
13 | COc1ccc(C)cc1N=C(OCc1cccc(Oc2ccccc2)c1)C(C)C [Compound 150] | 89 µg | > 0.1% | 0.01%
14 | CCCCc1ccc(N=C(OCc2cccc(Oc3ccccc3)c2)C(C)C)cc1 [Compound 152] | > 100 µg | > 0.1% | 0.009%
15 | CCC(=Nc1ccc(CC)cc1)OCc1cccc(Oc2ccccc2)c1 [Compound 157] | 25 µg | > 0.1% | 0.009%
16 | Cc1ccc(N=C(OCc2cccc(Oc3ccccc3)c2)C(C)C)cc1C [Compound 158] | 9 µg | 0.1% | 0.003%
17 | CCOc1ccc(N=C(OCc2cccc(Oc3ccccc3)c2)C(C)(C)C)cc1 [Compound 164] | > 100 µg | > 0.1% | 0.005%
18 | CC(C)c1ccc(N=C(OCc2cccc(Oc3ccccc3)c2)C(C)(C)C)cc1 [Compound 165] | > 100 µg | > 0.1% | 0.007%
19 | CSc1cccc(N=C(OCc2cccc(Oc3ccccc3)c2)C(C)C)c1 [Compound 166] | 22 µg | > 0.1% | 0.009%
20 | Cc1ccc(N=C(OCc2cccc(Oc3ccccc3)c2)C(C)(C)C)cc1C [Compound 167] | > 100 µg | > 0.1% | 0.02%
21 | CCOC(=O)c1cccc(N=C(OCc2cccc(Oc3ccccc3)c2)C(C)(C)C)c1 [Compound 168] | > 100 µg | > 0.1% | 0.1%
22 | COc1ccc(N=C(OCc2cccc(Oc3ccccc3)c2)C(C)C)cc1OC [Compound 169] | 10 µg | > 0.1% | 0.009%
23 | CC(=O)c1cccc(N=C(OCc2cccc(Oc3ccccc3)c2)C(C)C)c1 [Compound 170] | 37 µg | > 0.1% | 0.1%

Row | Compound | LC50, HF [1] | LC50, TBW, E (TBW-E) [2] | LC50, CL [3]
24 | CCOc1cccc(N=C(OCc2cccc(Oc3ccccc3)c2)C(C)C)c1 [Compound 171] | 80 µg | > 0.1% | 0.01%
25 | CC(C)(C)C(=Nc1cccc([N+](=O)[O-])c1)OCc1cccc(Oc2ccccc2)c1 [Compound 175] | > 100 µg | > 0.1% | 0.018%
26 | CC(C)C(=Nc1ccc2c(c1)OC(C)(C)O2)OCc1cccc(Oc2ccccc2)c1 [Compound 182] | 28 µg | 0.04% | 0.0006%
27 | CC(C)C(=Nc1ccc2c(c1)OCO2)OCc1cccc(Oc2ccccc2F)c1 [Compound 183] | 10 µg | 0.075% | 0.00075%
28 | CCCC(=Nc1ccc(OC)cc1)OCc1cccc(Oc2ccccc2)c1 [Compound 184] | 61 µg | > 0.1% | 0.024%
29 | CCC(C)C(=Nc1ccc2c(c1)OCO2)OCc1cccc(Oc2ccccc2)c1 (stereo not drawn) [Compound 185] | 13 µg | 0.075% | 0.0006%
30 | CC(C)C(=Nc1ccc2c(c1)OCO2)OCc1cccc(Oc2ccccc2F)c1 [Compound 190] | 7.5 µg | 0.023% | 0.0004%
31 | CC(C)C(=Nc1cccc(C(F)(F)F)c1)OCc1cccc(Oc2cccc(F)c2)c1 [Compound 192] | 25 µg | 0.07% | 0.0012%
32 | CC(C)C(=Nc1ccc(Cl)c(C(F)(F)F)c1)OCc1cccc(Oc2cccc(F)c2)c1 [Compound 195] | > 100 µg | > 0.1% | 0.002%
33 | CC(C)C(=Nc1ccc(F)cc1)OCc1cccc(Oc2ccc(F)cc2)c1 [Compound 197] | > 100 µg | 0.05% | 0.0004%
34 | CC(C)C(=Nc1cccc(F)c1)OCc1cccc(Oc2ccc(F)cc2)c1 [Compound 200] | 7.5 µg | 0.1% | 0.00075%
35 | COc1cccc(N=C(OCc2cccc(Oc3ccc(F)cc3)c2)C(C)C)c1 [Compound 201] | 15 µg | > 0.1% | 0.004%
36 | CC(C)C(=Nc1ccc(F)cc1)OCc1cccc(Oc2cccc(Cl)c2)c1 [Compound 205] | 50 µg | > 0.1% | 0.004%
37 | CC(C)C(=Nc1ccc(F)cc1)OCc1cccc(Oc2ccc(F)cc2F)c1 [Compound 206] | 50 µg | > 0.1% | 0.0017%
38 | CC(C)C(=Nc1ccc(Cl)c(Cl)c1)OCc1cccc(Oc2cccc(Cl)c2)c1 [Compound 207] | > 100 µg | > 0.1% | 0.008%
39 | CC(C)C(=Nc1ccc(C#N)cc1)OCc1cccc(Oc2cccc(Cl)c2)c1 [Compound 208] | 27 µg | > 0.1% | 0.0035%
40 | CCC(C)C(=Nc1ccc(Cl)c(Cl)c1)OCc1cccc(Oc2ccc(F)cc2)c1 (stereo not drawn) [Compound 211] | 61 µg | > 0.1% | 0.0017%
41 | CC(C)C(=Nc1ccc(F)c(F)c1)OCc1cccc(Oc2ccc(C#N)cc2)c1 [Compound 212] | 20 µg | 0.045% | 0.0005%
42 | CC(C)C(=Nc1ccc(Cl)c(Cl)c1)OCc1cccc(Oc2ccc(F)cc2F)c1 [Compound 213] | > 100 µg | > 0.1% | 0.00075%
43 | CC(C)C(=Nc1ccc(F)c(F)c1)OCc1cccc(Oc2ccc(F)cc2F)c1 [Compound 214] | 19 µg | 0.04% | 0.0003%
44 | CC(C)C(=Nc1ccc(F)c(Cl)c1)OCc1cccc(Oc2cc(F)cc(F)c2)c1 [Compound 215] | 75 µg | > 0.1% | 0.00075%
45 | CC(C)C(=Nc1ccc(Cl)c(Cl)c1)OCc1cccc(Oc2ccc(F)c(F)c2)c1 [Compound 218] | 25 µg | 0.025% | 0.0003%
